Structures can show the parent of a compound that is named as a salt.

Our source for the IC50 values is patent US20250129021A1, “SMALL MOLECULE PROTEIN SYNTHESIS MODULATORS” (Interdict Bio, Inc., priority 2023, published 2025).

Holding throughout (format): biochemical
What all share (settings): HeLa S3 lysate, sfGFP/mCherry ratio, 2 hrs at 30° C.

Experiment [1] has as its system MYC. Nature of the experiment: In vitro transcription-translation (IVTT) assay, MYC reporter. The procedure, abridged:
(§1)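 Reporter: mCherry, P2A, then 3×FLAG-target peptide-sfGFP fusion, IRES-initiated; HeLa S3 lysate IVTT; cpd dilutions 30 μM−0.1 μM half-log in 100% DMSO (dilution-plate conc); DNA added last; 2 h, 30° C; PBS quench.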

For experiment [2], the system named is ALK. Nature of the experiment: In vitro transcription-translation (IVTT) assay, ALK reporter. From the text: (§2) All reporter constructs have been cloned into the pT7CFE1-CHis plasmid (ThermoFisher #88860) using Gibson assembly procedures (NEB #E2611L). The parental pT7CFE1-CHis plasmid contains an EMCV IRES at the 5′UTR for translation initiation, a multiple-cloning site (MCS) for gene insertion, an optional C-terminal His-epitope tag, and polyA sequence in the 3′UTR to regulate mRNA stability. All reporters are designed to be inserted at the MCS to include a red fluorescent protein (mCherry), P2A self-cleaving peptide which releases the preceding mCherry protein product, and a fusion open reading frame containing a 3×FLAG epitope, a peptide sequence of interest (TEST), and green fluorescent protein (sfGFP).
(§3) Construct Plasmid Preparation: All plasmids are isolated from MACH1 cells (ThermoFisher) grown overnight in ampicillin-containing luria broth, and purified using ZymoPure Express Plasmid Midiprep Kit (Zymo Research). Constructs are sequenced verified and diluted to a working concentration of 110 ng/μL.
(§4) HeLa S3 Lysate Preparation: HeLa S3 cell pellets are acquired from Ipracell/Ipratech (Belgium) and shipped as 4 mL frozen cell pellets on dry ice for storage at −80° C. until use. The procedure for lysate preparation is as follows. Prepare 1× Lysis Buffer, cold and stored on ice:
(§5) Each preparation takes 8 cell pellets (4 ml packed volume each, approximately 1.0×10^9 cells per pellet). Thaw cell pellets from −80° C. on ice for 90 mins. Lay pellets horizontally on top of the ice and rotate every 30 mins to ensure even thawing. Once thawed, add 4 mL of cold lysis buffer to each pellet, and using a serological pipet, gently pipet up and down to break up clumps. Incubate resuspended cells in ice for an additional 30 mins (plunged into ice). During 30 min incubation, rinse and RNase-zap (Ambion) glass dounces (use loose pestle “A”), gently dry and place on ice until needed. Prepare RNase-free Eppendorf tubes for spinning and for batch storage. Add batch labels to 1.5-1.7 mL RNase-free microcentrifuge tubes (labeling scheme below). Each batch will have an extra 1.5-1.7 mL RNase-free microcentrifuge tube for 40 μL of lysate, label the top of this tube (labeling scheme below). After 30 min incubation, transfer all 8 mL of cell pellet to dounce. Cell lysis is complete after douncing 100 times. Aliquot cell lysis into 1.5-1.7 mL temporary-microcentrifuge tubes. Place tubes in centrifuge with “fins” out, and spin at 1,200×g for 5 mins. After the first spin use a 1 mL pipet to resuspend each tube and repeat spin. This acts as an additional lysis step, is more vigorous and increases lysate yield. During second spin get liquid N2 and a fresh conical tube on ice. After spin is complete, transfer supernatant (lysate) from microcentrifuge tubes into the 50 mL conical tube and keep on ice. Repeat steps 10-14 for all other cell pellets until completed. Once all cell lysate has been transferred to the 50 mL conical tube pipet to mix so the solution is homogenous. Transfer 1 mL of lysate into batch-labeled microcentrifuge tubes and flash freeze in liquid nitrogen. Be sure to pipet up and down to mix throughout transfer step. Place all tubes in the […] for long-term storage.
(§6) In vitro transcription-translation assay setup: Each assay includes a master mix containing lysate and shared components, a 96-well plate containing compound titrations for testing, a 96-well DNA plate with reporter constructs to be tested, 96-well skirted PCR plates, and 96-well flat-bottom, black, fluorescent assay plates. […]

Experiment [3] deals with CCND1. Nature of the experiment: In vitro transcription-translation (IVTT) assay, CCND1 reporter. The procedure, abridged: as §1
Experiment [4] deals with MCL-1. Nature of the experiment: In vitro transcription-translation (IVTT) assay, MCL-1 reporter. In a few lines:
as §1

Experiment [5] concerns KRAS G12D. Kind of experiment: In vitro transcription-translation (IVTT) assay, KRAS G12D reporter.
Source text: as §2, §3, §4, §5, §6

Turning to `COc1ccc(C[C@H]2NC[C@H](O)[C@H]2OC(=O)NCCN2C[C@@H](NC(C)=O)[C@H](NC(C)=O)C2)cc1` [V187588, (2R,3S,4S)-4-hydroxy-2-[(4-methoxyphenyl)methyl]pyrrolidin-3-yl N-{2-[(3R,4R)-3,4-diacetamidopyrrolidin-1-yl]ethyl}carbamate; trifluoroacetic acid], the IC50 in experiment [1] and in experiment [2] was greater than 30 µM each time.

Regarding `CCN(CC)CCNC(=O)O[C@@H]1[C@@H](O)CN[C@@H]1Cc1ccc(OC)cc1` [V187384, (2R,3S,4S)-4-hydroxy-2-[(4-methoxyphenyl)methyl]pyrrolidin-3-yl N-[2-(diethylamino)ethyl]carbamate], the IC50 (in general, the concentration that gives 50% inhibition) is greater than 30 µM in experiment [1] and 10 to 20 µM in experiment [2].

`COc1ccc(C[C@H]2NC[C@H](O)[C@H]2OC(=O)Nc2nccs2)cc1` [V187752, (2R,3S,4S)-4-hydroxy-2-[(4-methoxyphenyl)methyl]pyrrolidin-3-yl N-(1,3-thiazol-2-yl)carbamate Hydrochloride]: the values for the concentration for half-maximal inhibition (IC50) in experiment [1] and in experiment [2] were 10 to 20 µM and less than 10 µM, respectively.

Consider `COc1ccc(C[C@H]2NC[C@H](O)[C@H]2OC(=O)Nc2ncc[nH]2)cc1` [V187755, (2R,3S,4S)-4-hydroxy-2-[(4-methoxyphenyl)methyl]pyrrolidin-3-yl N-(1H-imidazol-2-yl)carbamate], for which the IC50 in experiment [3], in experiment [1] and in experiment [2] was less than 10 µM each time.

With `COc1ccc(C[C@H]2NC[C@H](O)[C@H]2OC(=O)Nc2nc3ccccc3s2)cc1` [V187753, (2R,3S,4S)-4-hydroxy-2-[(4-methoxyphenyl)methyl]pyrrolidin-3-yl N-(1,3-benzothiazol-2-yl)carbamate; trifluoroacetic acid], the IC50 in experiment [1] and in experiment [2] was greater than 30 µM each time.

For `COc1ccc(C[C@H]2NC[C@H](O)[C@H]2OC(=O)NCCCO)cc1` [V187585, (2R,3S,4S)-4-hydroxy-2-[(4-methoxyphenyl)methyl]pyrrolidin-3-yl N-(3-hydroxypropyl)carbamate], the IC50 in experiment [3], in experiment [1], in experiment [4] and in experiment [2] was less than 10 µM each time.

Consider `COc1ccc(C[C@H]2NC[C@H](O)[C@H]2OC(=O)NCc2nn[nH]n2)cc1` [V187534, (2R,3S,4S)-4-hydroxy-2-[(4-methoxyphenyl)methyl]pyrrolidin-3-yl N-(2H-1,2,3,4-tetrazol-5-ylmethyl) carbamate; trifluoroacetic acid], for which the values for the IC50 in experiment [1] and in experiment [2] were 10 to 20 µM and less than 10 µM, respectively.

On to `COc1ccc(C[C@H]2NC[C@H](O)[C@H]2OC(=O)NCCNc2c(NCc3ccccc3)c(=O)c2=O)cc1` [V187519, (2R,3S,4S)-4-hydroxy-2-[(4-methoxyphenyl)methyl]pyrrolidin-3-yl N-(2-{[2-(benzylamino)-3,4-dioxocyclobut-1-en-1-yl]amino}ethyl)carbamate; trifluoroacetic acid], for which, in experiment [5], the concentration for half-maximal inhibition (IC50) is greater than 30 µM.

Regarding `COc1ccc(C[C@H]2NC[C@H](O)[C@H]2OC(=O)NCCOCCN2CCNCC2)cc1` [V187626, (2R,3S,4S)-4-hydroxy-2-[(4-methoxyphenyl)methyl]pyrrolidin-3-yl N-{2-[2-(piperazin-1-yl)ethoxy]ethyl}carbamate; trifluoroacetic acid], the values for the IC50 in experiment [1] and in experiment [2] were greater than 30 µM and 20 to 30 µM, respectively.

For the molecule `COc1ccc(C[C@H]2NC[C@H](O)[C@H]2OC(=O)NCCN)cc1` [V187575, (2R,3S,4S)-4-hydroxy-2-[(4-methoxyphenyl)methyl]pyrrolidin-3-yl N-(2-aminoethyl)carbamate; trifluoroacetic acid], the figures for the 50% inhibitory concentration (IC50) in experiment [1] and in experiment [2] were 20 to 30 µM and less than 10 µM, respectively.

With `COc1ccc(C[C@H]2NC[C@H](O)[C@H]2OC(=O)NCCN2CC(C)(O)C2)cc1` [V187580, (2R,3S,4S)-4-hydroxy-2-[(4-methoxyphenyl)methyl]pyrrolidin-3-yl N-[2-(3-hydroxy-3-methylazetidin-1-yl)ethyl]carbamate; trifluoroacetic acid], the concentration for half-maximal inhibition (IC50) is greater than 30 µM in experiment [1] and 10 to 20 µM in experiment [2].
